Our source for the IC50 and EC50 values is ChEMBL document CHEMBL5260823, “5-Ene-4-thiazolidinones - An efficient tool in medicinal chemistry” (Eur J Med Chem, 2017).

In test [1] the target is RNA-directed RNA polymerase (Hepacivirus hominis, UniProt O39930). As to the kind of experiment: Inhibition of Hepatitis C virus NS5B polymerase.
Another test concerns Plasmodium falciparum. As to the kind of experiment: Antimalarial activity against chloroquine sensitive Plasmodium falciparum FCR-3 infected in mouse FM3A cells ssessed as reduction in parasite growth. As to conditions: FCR-3, FM3A. In kind it is functional, organism-based.
The target of test [2] is Serine/threonine-protein kinase PLK1 (Homo sapiens, UniProt P53350). The experiment in a line: Inhibition of full-length His-tagged human PLK1 expressed in baculovirus using biotinylated casein as substrate in presence of [gamma-33P]-ATP by scintillation counter analysis.
The test system of another test is MCF7. The experiment in a line: Antiproliferative activity against human MCF7 cells assessed as reduction in cell proliferation incubated for 4 days by crystal violet based assay. It counts as functional. The settings on record: MCF7, 96 h.
For the next test, the system named is NCI-H460. As to the kind of experiment: Antiproliferative activity against human NCI-H460 cells assessed as reduction in cell proliferation incubated for 4 days by crystal violet based assay. It counts as functional. The settings on record: NCI-H460, 96 h.
The next test deals with DU-145. The experiment in a line: Antiproliferative activity against human DU-145 cells assessed as reduction in cell proliferation incubated for 4 days by crystal violet based assay. It counts as functional. The settings on record: DU-145, 96 h.
Another test has as its system HeLa S3. The experiment in a line: Antiproliferative activity against human HeLa S3 cells assessed as reduction in cell proliferation incubated for 4 days by crystal violet based assay. In kind it is functional. The settings on record: HeLa S3, 96 h.
The test system of another test is B16-F10. The experiment in a line: Antiproliferative activity against mouse B16-F10 cells assessed as reduction in cell proliferation incubated for 4 days by crystal violet based assay. It counts as functional. As to conditions: B16-F10, 96 h.
Another test relates to Caco-2. As to the kind of experiment: Antiproliferative activity against human Caco-2 cells assessed as reduction in cell proliferation incubated for 4 days by crystal violet based assay. In kind it is functional. As to conditions: Caco-2, 96 h.
A further test concerns the target T1, Lethal factor (Bacillus anthracis, UniProt P15917).
T1 sequence (P15917 whole entry): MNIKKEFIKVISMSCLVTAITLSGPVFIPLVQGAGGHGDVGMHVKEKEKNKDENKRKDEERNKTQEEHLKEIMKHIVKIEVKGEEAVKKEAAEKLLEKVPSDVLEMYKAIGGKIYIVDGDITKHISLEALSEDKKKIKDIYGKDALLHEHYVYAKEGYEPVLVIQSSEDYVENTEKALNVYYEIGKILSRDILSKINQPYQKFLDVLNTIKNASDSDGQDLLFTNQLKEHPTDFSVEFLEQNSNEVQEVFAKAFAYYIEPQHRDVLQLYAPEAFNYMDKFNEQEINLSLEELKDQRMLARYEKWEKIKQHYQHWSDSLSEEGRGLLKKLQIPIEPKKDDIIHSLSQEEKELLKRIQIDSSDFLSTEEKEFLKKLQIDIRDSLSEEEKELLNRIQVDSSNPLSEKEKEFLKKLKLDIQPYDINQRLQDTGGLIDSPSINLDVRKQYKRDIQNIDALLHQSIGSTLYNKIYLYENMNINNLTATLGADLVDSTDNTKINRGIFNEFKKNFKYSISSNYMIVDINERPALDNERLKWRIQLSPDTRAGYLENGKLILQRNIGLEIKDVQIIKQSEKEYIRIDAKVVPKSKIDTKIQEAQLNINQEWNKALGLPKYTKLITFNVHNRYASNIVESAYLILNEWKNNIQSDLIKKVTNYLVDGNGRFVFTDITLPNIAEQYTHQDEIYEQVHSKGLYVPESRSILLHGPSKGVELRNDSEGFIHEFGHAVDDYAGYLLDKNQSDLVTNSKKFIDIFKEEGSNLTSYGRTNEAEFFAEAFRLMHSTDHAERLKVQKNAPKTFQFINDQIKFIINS
As to the kind of experiment: Inhibition of Bacillus anthracis anthrax lethal factor using MAPKKide as substrate incubated for 30 mins by fluorescence plate reader analysis.

Test [3] in a line: Inhibition of COX-2 in LPS stimulated mouse J774.A1 cells using arachidonic acid as substrate preincubated for 60 mins followed by substrate addition and measured after 30 mins by EIA analysis. In kind it is cell-based.
A short description of test [4]: Inhibition of beta-lactamase P99 (unknown origin) using cephalosporin nitrocefin as substrate preincubated for 10 mins followed by substrate addition by spectrophotometric analysis. On the set-up: species or system Bacteria.
Test [5] concerns the target T2, Peroxisome proliferator-activated receptor alpha (Homo sapiens, UniProt Q07869).
T2 sequence (Q07869 whole entry): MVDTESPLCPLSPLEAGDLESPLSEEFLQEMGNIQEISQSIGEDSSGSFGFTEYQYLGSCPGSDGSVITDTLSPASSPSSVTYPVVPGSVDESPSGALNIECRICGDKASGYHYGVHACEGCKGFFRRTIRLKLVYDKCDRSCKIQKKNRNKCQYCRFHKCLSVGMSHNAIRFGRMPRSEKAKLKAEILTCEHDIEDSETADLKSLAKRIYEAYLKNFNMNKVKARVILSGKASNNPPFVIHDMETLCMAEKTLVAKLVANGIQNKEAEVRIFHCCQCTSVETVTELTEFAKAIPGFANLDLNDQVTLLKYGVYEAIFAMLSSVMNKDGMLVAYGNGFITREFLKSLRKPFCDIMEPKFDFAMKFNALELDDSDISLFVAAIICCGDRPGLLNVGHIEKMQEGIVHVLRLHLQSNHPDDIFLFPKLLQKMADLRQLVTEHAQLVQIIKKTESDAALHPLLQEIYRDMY
As to the kind of experiment: Agonist activity against PPAR-alpha (unknown origin).

In test [6] the target is Dual specificity tyrosine-phosphorylation-regulated kinase 1A (Homo sapiens, UniProt Q13627). As to the kind of experiment: Inhibition of recombinant human GST-tagged DYRK1A expressed in Escherichia coli using Woodtide as substrate in presence of [gamma-33P] ATP incubated for 30 mins by scintillation counter analysis.

Sequence of RNA-directed RNA polymerase (O39930 whole entry): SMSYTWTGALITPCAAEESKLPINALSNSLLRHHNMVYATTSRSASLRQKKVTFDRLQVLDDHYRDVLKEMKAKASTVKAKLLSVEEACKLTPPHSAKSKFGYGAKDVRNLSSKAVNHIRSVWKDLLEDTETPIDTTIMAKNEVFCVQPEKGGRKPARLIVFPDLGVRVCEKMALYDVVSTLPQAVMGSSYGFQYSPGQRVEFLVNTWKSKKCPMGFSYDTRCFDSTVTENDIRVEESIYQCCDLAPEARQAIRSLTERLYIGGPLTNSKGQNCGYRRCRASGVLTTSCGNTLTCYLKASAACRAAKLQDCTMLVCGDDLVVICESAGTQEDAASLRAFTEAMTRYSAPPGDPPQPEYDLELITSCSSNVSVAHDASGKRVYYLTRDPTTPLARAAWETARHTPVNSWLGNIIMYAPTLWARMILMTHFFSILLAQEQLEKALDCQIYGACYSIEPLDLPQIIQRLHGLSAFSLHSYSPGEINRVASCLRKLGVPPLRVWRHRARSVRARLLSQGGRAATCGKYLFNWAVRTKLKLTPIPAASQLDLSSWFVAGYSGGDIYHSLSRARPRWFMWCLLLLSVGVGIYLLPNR
Sequence of Serine/threonine-protein kinase PLK1 (P53350 whole entry): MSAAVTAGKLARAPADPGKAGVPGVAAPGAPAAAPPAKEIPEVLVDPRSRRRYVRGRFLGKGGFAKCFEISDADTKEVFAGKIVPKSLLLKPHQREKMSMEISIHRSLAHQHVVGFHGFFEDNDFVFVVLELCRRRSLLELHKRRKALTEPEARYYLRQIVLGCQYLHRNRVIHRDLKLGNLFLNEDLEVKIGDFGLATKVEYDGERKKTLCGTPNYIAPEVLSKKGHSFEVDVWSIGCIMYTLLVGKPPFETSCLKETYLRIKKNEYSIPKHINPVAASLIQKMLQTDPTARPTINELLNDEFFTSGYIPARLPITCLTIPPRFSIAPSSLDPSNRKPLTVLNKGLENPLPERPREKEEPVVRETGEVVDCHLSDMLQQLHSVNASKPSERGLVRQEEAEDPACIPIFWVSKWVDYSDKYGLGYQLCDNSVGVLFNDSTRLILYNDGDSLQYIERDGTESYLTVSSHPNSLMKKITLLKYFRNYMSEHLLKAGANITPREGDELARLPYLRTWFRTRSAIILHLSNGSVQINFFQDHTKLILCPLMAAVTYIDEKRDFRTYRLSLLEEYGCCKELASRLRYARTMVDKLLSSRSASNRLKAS

With `CCc1ccc(/C=C2/SC(NC(C(=O)O)c3ccc(F)cc3)=NC2=O)o1` (stereo not given), in test [1], the half-maximal inhibitory concentration (IC50) (commonly the concentration at which inhibition is half-maximal) was 3 µM.

In turn, `Cc1ccc(S(=O)(=O)NC2=NC(=O)/C(=C/c3ccc(C)o3)S2)cc1` came in with an IC50 in test [1] of 2 µM.

Regarding `C=CCn1c(=O)/c(=C2\Sc3ccccc3N2C)s/c1=C\c1cccc[n+]1C`, the EC50 – broadly, the concentration at which the effect is half-maximal – in the test on Plasmodium falciparum was 0.012 µM.

Turning to `CCn1c(=O)/c(=C/Nc2cccc(CCN3CCCC3)c2)s/c1=C(\C#N)C(=O)NCC(F)(F)F`, the half-maximal inhibitory concentration (IC50) in test [2] was 0.019 µM; in the test with MCF7 it was 0.2 µM; in the test on NCI-H460, 0.2 µM; in the test on DU-145 it was 0.2 µM; in the test on HeLa S3 it was 0.2 µM; in the test on B16-F10 it was 0.2 µM. Moreover, in the test with Caco-2, the IC50 turned out to be 0.2 µM.

In turn, `O=C(O)CN1C(=O)/C(=C/c2ccco2)SC1=S` yielded an IC50 on Lethal factor of 10 µM.

`CONC1=NC(=O)/C(=C/c2cc(C(C)(C)C)c(O)c(C(C)(C)C)c2)S1`: in [3], the IC50 was found to be 0.17 µM.

In the case of `O=C1NC(=S)S/C1=C1\C(=O)Nc2ccccc21`, the IC50 in test [4] is 2600 µM.

In turn, `CN(C)c1ccc(/C=C/C=C2\S/C(=N\c3ccccc3)N(Cc3ccc(C(=O)O)cc3)C2=O)cc1` returned a half-maximal effective concentration (EC50) in test [5] of 0.044 µM.

Regarding `COc1ccc(/C=C2\SC(NCCCN3CCN(CCCNC4=NC(=O)/C(=C/c5ccc(OC)cc5)S4)CC3)=NC2=O)cc1`, the IC50 in test [6] was 0.04 µM.
